According to patent US5093363A, “2,4,6-substituted phenol derivatives” (priority 1989, dated 1992):

Experiments:
[1] = system: production of peroxidized lipids in a homogenate of rat brain; test: Suppression of production of peroxidized lipids in a homogenate of rat brain (TBA method); type: biochemical, rat (SD strain); settings: 37° C., 30 minutes
Description: [Suppression of production of peroxidized lipids in a homogenate of rat brain]
SD strain rats (body weight, about 200 g) were sacrificed by cutting down their heads, and the brains were taken out. The brains were homogenated with a 4-fold amount of 0.05 M phosphate-sodium chloride buffer (pH 7.4) and centrifuged at 1,000× g for 10 minutes. The supernatant was kept at -80° C. for storage.
The supernatant was diluted with a 2-fold amount of the same phosphate-sodium chloride buffer as above, and 0.45 ml of the dilution was combined with 30 μl of ethanol per se (vehicle) or ethanol solution containing a test compound, followed by incubation at 37° C. for 30 minutes. The reaction was terminated by addition of a solution of 0.1% butylhydroxytoluene (BHT) (20 μl) in 25% metaphosphoric acid (125 μl). After deproteinization, the peroxidized lipids in the supernatant were measured by the thiobarbituric acid (TBA) method according to the description by Ohkawa et al.: in Anal. Biochem., Vol. 95, page 351 (1979). The amount of peroxidized lipids produced was compared with that in the vehicle applied group and expressed in % control.

HMG-CoA reductase = target: T1, HMG-CoA reductase (Rattus norvegicus, UniProt P51639); test: HMG-CoA reductase inhibitory activity (rat liver microsome); type: biochemical, rat (Sprague-Dawley); settings: [3-^14 C]HMG-CoA, 37° C., 30 minutes, read-out: HMG-CoA reductase inhibitory activity IC50 (50% inhibition concentration)
T1 construct: Liver microsomes was prepared by using Sprague-Dawley rats; from tissue; host or cells: liver microsomes of Sprague-Dawley rats fed 2% cholestyramine diet
T1 sequence (P51639 1-887): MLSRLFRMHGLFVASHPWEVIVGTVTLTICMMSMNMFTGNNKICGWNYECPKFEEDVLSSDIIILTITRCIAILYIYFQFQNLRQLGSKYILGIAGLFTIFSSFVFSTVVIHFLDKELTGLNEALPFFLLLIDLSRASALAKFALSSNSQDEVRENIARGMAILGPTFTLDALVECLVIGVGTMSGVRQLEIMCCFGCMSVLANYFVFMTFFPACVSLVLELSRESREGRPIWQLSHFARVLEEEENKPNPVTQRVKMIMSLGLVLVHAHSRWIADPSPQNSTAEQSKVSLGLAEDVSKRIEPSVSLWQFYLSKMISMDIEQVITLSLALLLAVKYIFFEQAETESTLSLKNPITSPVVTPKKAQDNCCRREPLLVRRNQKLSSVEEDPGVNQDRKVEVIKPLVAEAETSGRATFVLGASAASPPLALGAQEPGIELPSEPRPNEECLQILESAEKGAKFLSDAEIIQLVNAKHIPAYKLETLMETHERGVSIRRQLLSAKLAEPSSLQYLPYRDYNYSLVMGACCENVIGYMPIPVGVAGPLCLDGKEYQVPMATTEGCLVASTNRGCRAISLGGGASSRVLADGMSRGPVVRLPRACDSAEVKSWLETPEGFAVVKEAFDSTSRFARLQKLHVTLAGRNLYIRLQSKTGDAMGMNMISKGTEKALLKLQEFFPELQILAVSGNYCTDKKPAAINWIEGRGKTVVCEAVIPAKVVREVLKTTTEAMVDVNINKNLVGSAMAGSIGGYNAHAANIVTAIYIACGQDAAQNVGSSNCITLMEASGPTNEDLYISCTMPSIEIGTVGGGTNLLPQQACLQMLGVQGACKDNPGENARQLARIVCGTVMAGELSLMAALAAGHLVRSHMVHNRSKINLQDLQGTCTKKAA
Description: [HMG-CoA reductase inhibitory activity]
(1a) Preparation of rat liver microsome
Liver microsomes was prepared by using Sprague-Dawley rats which freely take a general diet containing 2% cholestyramine and water for 2 weeks according to the report of Kuroda et al (Biochim. Biophys. Acta., 486, page 70, 1977). The microsome fraction obtained by centrifuging at 105000× g was washed with a solution containing 15 mM nicotinamide and 2 mM magnesium chloride (in 100 mM potassium phosphate buffer solution, pH 7.4) once. Then, thereto was added equal parts of the buffer solution containing nicotinamide and magnesium chloride to the weight of used liver. The mixture was homogenized, cooled to -80° C., and preserved.
(1b) Measurement of HMG-CoA reductase inhibitory activity
At 0° C., 100 μl of rat liver microsome preserved at -80° C. was melted and diluted with 0.7 ml of cool potassium phosphate buffer (100 mM, pH 7.4). Thereto was added 0.8 ml of 50 mM EDTA solution (the above-mentioned potassium phosphate buffer solution) and 0.4 ml of 100 mM dithiothreitol solution (the above-mentioned potassium phosphate buffer solution) and the mixture was maintained at 0° C. To 1.675 ml of the microsome solution was added 670 μl of 25 mM NADPH solution (the above-mentioned potassium phosphate buffer solution). […] By means of a scintillation counter, specific activity was measured.

cholesterol synthesis = settings: disclosed by Nakatani, Farmashia 1988; cited from earlier work
[2] = concentration of test compound 0.01 mM
[3] = concentration of test compound 0.1 mM

SMILES	Inhibitory rate (% control) [1, 2]	Inhibitory rate (% control) [1, 3]	IC50 (HMG-CoA reductase)	inhibit cholesterol synthesis (cholesterol synthesis)
CC(C)(C)c1cc(SC[C@@H](O)C[C@@H](O)CC(=O)O)cc(C(C)(C)C)c1O [Compound No. 3, Sodium (3R,5S)-6-[(3,5-di-tert-butyl-4-hydroxyphenyl)thio]-3,5-dihydroxyhexanoate]	35.7 % control	94.9 % control	54 µM	–
CC[C@H](C)C(=O)O[C@H]1C[C@@H](C)C=C2C=C[C@H](C)[C@H](CC[C@@H]3C[C@@H](O)CC(=O)O3)[C@H]21 [Lovastatin]	–	–	0.024 µM	inhibit cholesterol synthesis
CC[C@H](C)C(=O)O[C@H]1CCC=C2C=C[C@H](C)[C@H](CC[C@@H]3C[C@@H](O)CC(=O)O3)[C@H]21 [Mevastatin]	–	–	–	inhibit cholesterol synthesis
CC[C@H](C)C(=O)O[C@H]1C[C@H](O)C=C2C=C[C@H](C)[C@H](CC[C@@H](O)C[C@@H](O)CC(=O)O)[C@H]21 [Pravastatin]	–	–	–	inhibit cholesterol synthesis
CC(C)(Sc1cc(C(C)(C)C)c(O)c(C(C)(C)C)c1)Sc1cc(C(C)(C)C)c(O)c(C(C)(C)C)c1 [Probucol]	27.8 % control	58.3 % control	–	–
CCC(C)(C)C(=O)O[C@H]1C[C@@H](C)C=C2C=C[C@H](C)[C@H](CC[C@@H]3C[C@@H](O)CC(=O)O3)[C@H]21 [Simarastatin]	–	–	–	inhibit cholesterol synthesis
